Data on one molecule can be found in patent publication US7070978B2, “Method for expressing and purifying proteins using budded baculovirus” (Toudai TLO, Ltd., priority 2001, dated 2006).

In the assay the target is S1P (Homo sapiens, UniProt Q14703). As to conditions: 10 mM EDTA; SREBP2-BV + S1P-BV, 5 mM calcium, 37° C. for 12 hours, Western blot with anti-serum R004.

The structures appear in SMILES notation.

Chain of S1P (Q14703 187-1052): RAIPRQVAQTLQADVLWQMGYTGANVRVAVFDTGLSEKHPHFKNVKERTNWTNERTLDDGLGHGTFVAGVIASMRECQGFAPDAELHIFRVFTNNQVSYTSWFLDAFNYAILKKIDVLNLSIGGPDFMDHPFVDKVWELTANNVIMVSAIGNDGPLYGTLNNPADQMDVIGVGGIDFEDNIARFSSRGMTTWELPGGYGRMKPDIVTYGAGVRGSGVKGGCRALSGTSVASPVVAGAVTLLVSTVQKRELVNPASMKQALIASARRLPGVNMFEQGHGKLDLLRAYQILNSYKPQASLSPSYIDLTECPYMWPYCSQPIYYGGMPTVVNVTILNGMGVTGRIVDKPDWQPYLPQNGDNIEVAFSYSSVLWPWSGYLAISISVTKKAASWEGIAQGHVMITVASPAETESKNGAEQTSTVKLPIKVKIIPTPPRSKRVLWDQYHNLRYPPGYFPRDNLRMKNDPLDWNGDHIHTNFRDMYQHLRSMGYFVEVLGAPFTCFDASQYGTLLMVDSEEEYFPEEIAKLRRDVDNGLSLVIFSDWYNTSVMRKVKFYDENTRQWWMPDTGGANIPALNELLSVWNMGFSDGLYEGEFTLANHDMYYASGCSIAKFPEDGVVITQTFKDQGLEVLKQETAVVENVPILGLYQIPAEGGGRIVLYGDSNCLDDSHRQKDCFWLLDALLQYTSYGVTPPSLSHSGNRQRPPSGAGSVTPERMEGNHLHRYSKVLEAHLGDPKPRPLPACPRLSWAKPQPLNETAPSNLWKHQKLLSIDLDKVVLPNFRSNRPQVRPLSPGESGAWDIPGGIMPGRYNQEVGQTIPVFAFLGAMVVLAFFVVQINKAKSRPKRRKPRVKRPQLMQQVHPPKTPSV
Experimental: Sf9 cells were infected with recombinant viruses of S1P or SREBP at MOI 5. 72 hours later, the BV fraction was recovered by centrifugation as in Examples 1 and 2, and then suspended in TBS buffer (10 mM Tris, 150 mM NaCl, pH7.5). BV suspended in TBS was subjected to a protein determination with a protein determination kit (Bio-Rad). Reaction solutions of SREBP2-BV as a substrate and S1P-BV as an enzyme were prepared to have respective final concentrations of 10 μg per reaction solution. In addition, calcium ions required for activation of S1P were added to the reaction solution at a concentration, as calcium acetate, which enables to measure activity. Calcium, EDTA (pH7.4) and EGTA (pH7.4) were added to BV solution, and then added with TBS buffer (pH7.4) to a reaction volume of 20 μl, followed by incubation at 37° C. for 12 hours. Following reaction, the solution was subjected to heat treatment with 5×SDS sample buffer at 95° C. for 10 minutes, subjected to 8% SDS-PAGE and Western blot using rabbit anti-serum R004 against the amino terminal of SREBP2.
BV expressing SREBP or S1P was mixed, incubated at 37° C. for 12 hours, and then allowed to react in the presence of 5 mM calcium.

Turning to `O=C(O)CN(CCN(CC(=O)O)CC(=O)O)CC(=O)O` [EDTA], the “inhibition of degradation (cleavage) of SREBP2 by S1P” value is listed as “completely inhibited”.
